# Laboratory results taken from US12447172B2, “Use of the miR-27a-5p microRNA for treating Clostridium difficile-induced bowel inflammation” (priority 2018, dated 2025).
# Assays:
# [1] = tested on: miR-27a-5p expression in Caco-2 cells; assay: miR-27a-5p expression (qRT-PCR) in Caco-2 cells pretreated with NF-κB and MAPK pathway inhibitors, then incubated with FliC or C. difficile R20291; conditions: 20 μM added 1 h before FliC or strain R20291
# [2] = tested on: C. difficile wild-type strain R20291 infection; assay: Clinical manifestations in the mouse model of CDI
# [3] = tested on: C. difficile wild-type strain R20291 infection
# IκB-α (NF-κB pathway) = assay: IκB-α Western blot of cecal lysates (NF-κB pathway activation); type: in vivo, C57BL/6 mice; conditions: infected, mimic-treated mice, D2 post-infection
# C. difficile = assay: Bacterial count in cecal contents at D2 post-infection
# [4] = mice infected with WT R20291, mimic 3 x 50 μg IV, D1 post-infection
# [5] = mice infected with WT R20291, mimic 3 x 50 μg IV, D2 post-infection
# [6] = uninfected mice (negative control) treated with mimic, D1
# [7] = uninfected mice (negative control) treated with mimic, D2
molecule,measurement,setting,value
Cc1ccc2nc(NCCN)c3ncc(C)n3c2c1 [BMS 345541],inhibition of miR-27a-5p expression,[1],roughly 40 fold
"miR-27a-mimic: Synthetic double-stranded RNA mimic by Riboxx (SEQ ID NO: 2/3, M-00303-0200 CONmiR Mimic in vivo), given IV mixed with in vivo-jetPEI (chain 1 AGGGCUUAGCUGCUUGUGACCCCC; chain 2 GGGGGUCACAAGCAGCUAAGCCCU; formulated with in vivo-jetPEI, further chemistry not given here)",Bristly hair D1 (animals affected/group),[2]; [4],0/10
same,Reduced activity D1 (animals affected/group),[2]; [4],0/10
same,Bristly hair D2 (animals affected/group),[2]; [5],0/10
same,Reduced activity D2 (animals affected/group),[2]; [5],1/10
same,Diarrhea D1 (animals affected/group),"[2]; mice infected with WT R20291, mimic/in vivo-jetPEI 3 x 50 μg IV, D1 post-infection",0/10
same,Diarrhea D2 (animals affected/group),"[2]; mice infected with WT R20291, mimic/in vivo-jetPEI 3 x 50 μg IV, D2 post-infection",3/10
same,Diarrhea D2 (animals affected/group),"[2]; mice infected with WT R20291, mimic/in vivo-jetPEI 3 x 50 μg IV, D2 post-infection, listed as miR27-a-mimic",3 out of 10
same,clinical and pathological manifestations caused by the bacteria,"[2]; mouse model of CDI, mimic administered intravenously",significantly reduces
same,Diarrhea D1 (animals affected/group),"[2]; uninfected mice (negative control) treated with mimic 3 x 50 μg IV, D1",0/9
same,Diarrhea D2 (animals affected/group),"[2]; uninfected mice (negative control) treated with mimic 3 x 50 μg IV, D2",0/9
same,Bristly hair D1 (animals affected/group),[2]; [6],0/9
same,Reduced activity D1 (animals affected/group),[2]; [6],0/9
same,Bristly hair D2 (animals affected/group),[2]; [7],0/9
same,Reduced activity D2 (animals affected/group),[2]; [7],0/9
same,"mice with a cecum with little or no evidence of inflammation and normal, mucus-free cecal contents","[3]; infected, mimic-treated group, D2 post-infection",6 of 10
same,inflammatory appearance of the cecum,"[3]; infected, mimic-treated mice, D2 post-infection, macroscopic",largely attenuated
same,inflammation score of the 3 treated mice that showed diarrhea at D2,"[3]; infected, mimic-treated, D2 post-infection",high inflammation score comparable to infected and untreated mice
same,efficacy rate,"[3]; mouse model of infection, 3 of 10 treated mice affected",70%
same,histological inflammation score (Table 3),"[3]; mouse, in vivo",0
same,histologic score of inflammation (Table 3),"[3]; the infected, mimic-treated mice with little or no inflammation, D2, untreated infected mice 6 to 9",less than 6
same,IκB-α in the cecum (NF-κB pathway activation),IκB-α (NF-κB pathway),no activation of IκB-α was detected
same,bacterial count in the cecal contents,"C. difficile; WT-infected, mimic-treated mice",3.7 × 10^9 CFU/g
same,rate of intestinal colonization compared with untreated WT-infected mice,C. difficile; cecal contents,quite equivalent
